In this test the test system is P388 leukemia ip, CD2F1 mice, survival T/C. The test can be described thus: NCI In Vivo Anticancer Drug Screen. Data for tumor model P388 Leukemia (intraperitoneal) in CD2F1 (CDF1) mice. The following applies: endpoint: median survival time, higher = longer survival. Put shortly:
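Mice carrying the transplanted tumor received test compound or vehicle. Survival was recorded in each group, and the value is the treated-group measurement divided by that of the vehicle-treated control group.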

Where [1] appears, read: dose: 60.0 mg/kg/injection, schedule: Q01DX005 (ip), vehicle: saline with Tween-80.
[2] abbreviates: dose: 120.0 mg/kg/injection, schedule: Q01DX005 (ip), vehicle: saline with Tween-80.
Where [3] appears, read: dose: 240.0 mg/kg/injection, schedule: Q01DX005 (ip), vehicle: saline with Tween-80.
The mark [4] stands for this setting: dose: 50.0 mg/kg/injection, schedule: Q01DX009 (ip), vehicle: saline.
Where [5] appears, read: dose: 50.0 mg/kg/injection, schedule: Q01DX009 (ip), vehicle: Klucel (hydroxypropylcellulose) (HPC).
Setting [6] is: dose: 100.0 mg/kg/injection, schedule: Q01DX009 (ip), vehicle: Klucel (hydroxypropylcellulose) (HPC).
[7] abbreviates: dose: 200.0 mg/kg/injection, schedule: Q01DX009 (ip), vehicle: Klucel (hydroxypropylcellulose) (HPC).
Setting [8] is: dose: 25.0 mg/kg/injection, schedule: Q01DX009 (ip), vehicle: Klucel (hydroxypropylcellulose) (HPC).

Values joined by “and” are separate entries in the source; they are usually repeats but may differ in a detail not shown here. Equal entries are not always repeated. Inconclusive results and toxic doses are left out.

On to `O=c1c2ccc(Cl)cc2nc2nc(-c3ccccc3)c3cc(Cl)ccc3n12`, for which the T/C runs as follows: under setting [1], 107 % of control; under setting [2], 106 % of control; under setting [3], 97 % of control.
With `CCCCc1ccc(Sc2cccc3c2C(=O)c2c(Sc4ccc(CCCC)cc4)cccc2C3=O)cc1`, the T/C reads like this: (dose: 100.0 mg/kg/injection, schedule: Q04DX003 (ip), vehicle: saline with Tween-80) 95 % of control; (dose: 200.0 mg/kg/injection, schedule: Q04DX003 (ip), vehicle: saline with Tween-80) 90 % of control; (dose: 400.0 mg/kg/injection, schedule: Q04DX003 (ip), vehicle: saline with Tween-80) 86 % of control.
Turning to `CCn1c(-c2ccc(OC(C)=O)cc2)c(C)c2cc(OC(C)=O)ccc21`, the T/C was 100 % of control (dose: 25.0 mg/kg/injection, schedule: Q01DX005 (ip), vehicle: Klucel (hydroxypropylcellulose) (HPC)); 101 % of control and 102 % of control (dose: 50.0 mg/kg/injection, schedule: Q01DX005 (ip), vehicle: Klucel (hydroxypropylcellulose) (HPC)); 95 % of control and 97 % of control (dose: 100.0 mg/kg/injection, schedule: Q01DX005 (ip), vehicle: Klucel (hydroxypropylcellulose) (HPC)); 90 % of control and 96 % of control (dose: 200.0 mg/kg/injection, schedule: Q01DX005 (ip), vehicle: Klucel (hydroxypropylcellulose) (HPC)); 100 % of control (dose: 400.0 mg/kg/injection, schedule: Q01DX005 (ip), vehicle: Klucel (hydroxypropylcellulose) (HPC)).
For `N=C(N)c1ccc(OCCCOc2ccc(C(=N)N)cc2Br)c(Br)c1`, the T/C reads like this: (dose: 6.25 mg/kg/injection, schedule: Q04DX003 (ip), vehicle: saline) 100 % of control; (dose: 12.5 mg/kg/injection, schedule: Q04DX003 (ip), vehicle: saline) 109 % of control; (dose: 25.0 mg/kg/injection, schedule: Q01DX009 (ip), vehicle: saline) 160 % of control; (dose: 25.0 mg/kg/injection, schedule: Q04DX003 (ip), vehicle: saline) 113 % of control; (dose: 33.0 mg/kg/injection, schedule: Q04DX003 (ip), vehicle: saline) 113 % of control; under setting [4], 90 % of control. In addition, for the setting “dose: 50.0 mg/kg/injection, schedule: Q04DX003 (ip), vehicle: saline”, the T/C is 113 % of control.
Regarding `CCOc1ccccc1/C=C1\CCc2ccccc2C1=O`, the T/C was 100 % of control under setting [5], 100 % of control under setting [6] and 102 % of control under setting [7].
In the case of `O=C(O)c1ccc(S(=O)(=O)OCCCl)cc1`, the T/C is, setting by setting: (dose: 6.25 mg/kg/injection, schedule: Q01DX009 (ip), vehicle: Klucel (hydroxypropylcellulose) (HPC)) 107 % of control; (dose: 12.5 mg/kg/injection, schedule: Q01DX009 (ip), vehicle: Klucel (hydroxypropylcellulose) (HPC)) 100 % of control; under setting [8], 110 % of control.
As to `O=C(NC1CCCCC1)OCc1c(COC(=O)NC2CCCCC2)c2cccn2c2c1cnn2-c1ccccc1`, the T/C runs as follows: (dose: 15.0 mg/kg/injection, schedule: Q01DX005 (ip), vehicle: saline with Tween-80) 93 % of control; (dose: 30.0 mg/kg/injection, schedule: Q01DX005 (ip), vehicle: saline with Tween-80) 88 % of control and 89 % of control; under setting [2], 92 % of control and 96 % of control; under setting [3], 99 % of control.
For the compound `COc1ccc(C(=O)C(C)Oc2ccccc2OC)cc1OC` (centres undefined), the T/C reads like this: (dose: 10.0 mg/kg/injection, schedule: Q01DX005 (ip), vehicle: Klucel (hydroxypropylcellulose) (HPC)) 99 % of control; (dose: 20.0 mg/kg/injection, schedule: Q01DX005 (ip), vehicle: Klucel (hydroxypropylcellulose) (HPC)) 100 % of control; (dose: 40.0 mg/kg/injection, schedule: Q01DX005 (ip), vehicle: Klucel (hydroxypropylcellulose) (HPC)) 101 % of control.
In the case of `O=C1NC(=O)C(F)[CH]([Ge](=[O])[O][Ge](=[O])[CH]2NC(=O)NC(=O)C2F)N1` (centres undefined), the T/C runs as follows: (dose: 30.0 mg/kg/injection, schedule: Q04DX002 (ip), vehicle: water) 100 % of control; (dose: 60.0 mg/kg/injection, schedule: Q04DX002 (ip), vehicle: water) 97 % of control; (dose: 100.0 mg/kg/injection, schedule: Q04DX002 (ip), vehicle: water) 91 % of control; (dose: 120.0 mg/kg/injection, schedule: Q04DX002 (ip), vehicle: water) 100 % of control; (dose: 200.0 mg/kg/injection, schedule: Q04DX002 (ip), vehicle: water) 92 % of control; (dose: 240.0 mg/kg/injection, schedule: Q04DX002 (ip), vehicle: water) 100 % of control.
As to `Cn1c(C(C)(C)OC(=O)Oc2ccccc2)cnc1[N+](=O)[O-]`, the T/C reads like this: under setting [6], 96 % of control; under setting [7], 100 % of control.
As to `O=C(CCl)c1ccc(Cl)c(Cl)c1`, the T/C is, setting by setting: (dose: 100.0 mg/kg/injection, schedule: Q01DX001 (ip), vehicle: other) 100 % of control; (dose: 200.0 mg/kg/injection, schedule: Q01DX001 (ip), vehicle: other) 100 % of control.
Take `CN1C(=S)C(=N)OC1c1ccccc1F` (centres undefined): the T/C is 106 % of control (dose: 60.0 mg/kg/injection, schedule: Q01DX005 (ip), vehicle: Klucel (hydroxypropylcellulose) (HPC)); 105 % of control (dose: 120.0 mg/kg/injection, schedule: Q01DX005 (ip), vehicle: Klucel (hydroxypropylcellulose) (HPC)); 103 % of control (dose: 240.0 mg/kg/injection, schedule: Q01DX005 (ip), vehicle: Klucel (hydroxypropylcellulose) (HPC)).
`C=C1C(=O)[C@]23C[C@H]1CC[C@H]2[C@@]12CO[C@@H](O)[C@@H]1C(C)(C)[C@@H](O)C[C@@H]2OC3=O`: the T/C by setting is: (dose: 3.8 mg/kg/injection, schedule: Q01DX008 (ip), vehicle: saline with Tween-80) 100 % of control; (dose: 7.5 mg/kg/injection, schedule: Q01DX008 (ip), vehicle: saline with Tween-80) 102 % of control; (dose: 7.5 mg/kg/injection, schedule: Q01DX009 (ip), vehicle: saline with Tween-80) 113 % of control; (dose: 15.0 mg/kg/injection, schedule: Q01DX008 (ip), vehicle: saline with Tween-80) 94 % of control; (dose: 15.0 mg/kg/injection, schedule: Q01DX009 (ip), vehicle: saline with Tween-80) 123 % of control; (dose: 30.0 mg/kg/injection, schedule: Q01DX008 (ip), vehicle: saline with Tween-80) 102 % of control. The T/C runs as follows: (dose: 30.0 mg/kg/injection, schedule: Q01DX009 (ip), vehicle: saline with Tween-80) 117 % of control; (dose: 60.0 mg/kg/injection, schedule: Q01DX009 (ip), vehicle: saline with Tween-80) 113 % of control.
In the case of `Cc1cc(C)c(S(=O)(=O)OCC2OC(OC3(COS(=O)(=O)c4c(C)cc(C)cc4C)OC(COS(=O)(=O)c4c(C)cc(C)cc4C)C(O)C3O)C(O)C(O)C2O)c(C)c1` (centres undefined), the T/C is 107 % of control under setting [8] and 99 % of control under setting [5].
Regarding `CC[C@@H](O)[C@H](CC[Se]c1ccccc1)C(=O)[C@H](O)C1CCCCC1`, the T/C was 107 % of control under setting [1], 105 % of control under setting [2] and 108 % of control under setting [3].
As for `CN(C)C12CCC(c3ccccc31)c1ccccc12`, the T/C was 105 % of control under setting [1], 97 % of control under setting [2] and 104 % of control under setting [3].
For the compound `O=C1c2ccccc2Cc2c(NCc3ccccc3)ncnc2N1Cc1ccccc1`, the T/C reads like this: (dose: 50.0 mg/kg/injection, schedule: Q01DX009 (ip), vehicle: saline with Tween-80) 104 % of control; (dose: 100.0 mg/kg/injection, schedule: Q01DX009 (ip), vehicle: saline with Tween-80) 101 % of control; (dose: 200.0 mg/kg/injection, schedule: Q01DX009 (ip), vehicle: saline with Tween-80) 90 % of control.
Take `CC(C)OP(=S)(OC(C)C)SC(C)C`: the T/C reads like this: under setting [4], 104 % of control; (dose: 100.0 mg/kg/injection, schedule: Q01DX009 (ip), vehicle: saline) 119 % of control; (dose: 200.0 mg/kg/injection, schedule: Q01DX009 (ip), vehicle: saline) 116 % of control.
For the compound `CC(SCc1ccccc1)C(NC(=O)CCl)C(=O)O` (centres undefined), the T/C runs as follows: (dose: 100.0 mg/kg/injection, schedule: Q01DX001 (ip), vehicle: saline with Tween-80) 100 % of control; (dose: 200.0 mg/kg/injection, schedule: Q01DX001 (ip), vehicle: saline with Tween-80) 97 % of control; (dose: 400.0 mg/kg/injection, schedule: Q01DX001 (ip), vehicle: saline with Tween-80) 91 % of control.

These data come from PubChem BioAssay AID330 (DTP/NCI, 2004).
